Laboratory results as given in ChEMBL document CHEMBL1153294, “The use of oxadiazole and triazole substituted naphthyridines as HIV-1 integrase inhibitors. Part 1: Establishing the pharmacophore” (Bioorg Med Chem Lett, 2009).

What was measured:
[1] = target: Human immunodeficiency virus type 1 integrase (Human immunodeficiency virus 1, UniProt Q7ZJM1); test: Inhibition of HIV1 recombinant integrase strand transfer activity
[2] = system: Human immunodeficiency virus; test: Antiviral activity against HIV by pseudo-type HIV assay; assay type: functional, organism-based; details: Human immunodeficiency virus 1

Human immunodeficiency virus type 1 integrase, sequence (Q7ZJM1 whole entry): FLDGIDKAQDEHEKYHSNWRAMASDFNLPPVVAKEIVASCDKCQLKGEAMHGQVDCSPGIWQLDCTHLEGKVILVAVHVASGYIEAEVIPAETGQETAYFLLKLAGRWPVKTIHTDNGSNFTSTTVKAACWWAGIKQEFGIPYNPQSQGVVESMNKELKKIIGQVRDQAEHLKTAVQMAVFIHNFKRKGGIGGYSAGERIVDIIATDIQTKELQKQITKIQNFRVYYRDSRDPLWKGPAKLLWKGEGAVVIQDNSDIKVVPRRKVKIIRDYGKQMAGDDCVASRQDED

With `COc1cccc(Cc2nnc(-c3ncc4cccnc4c3O)[nH]2)c1` the IC50 [1] was 2800 nM and the EC50 [2] was > 35000 nM.

`Oc1c(-c2nnc(Cc3ccc(Cl)cc3)[nH]2)ncc2cccnc12` was tested, and the IC50 [1] was 640 nM and the EC50 [2] was 1000 nM.

With `Cn1nc(Cc2ccc(F)cc2)nc1-c1ncc2cccnc2c1O` the IC50 [1] was > 500000 nM.

Work on `O=S1(=O)CCCCN1c1nc(-c2nnc(Cc3ccc(F)cc3)o2)c(O)c2ncccc12` yielded an IC50 [1] of 2 nM and an EC50 [2] of 13 nM.

`COc1ccc(Cc2nnc(-c3ncc4cccnc4c3O)[nH]2)cc1OC` was tested, and the IC50 [1] was 6300 nM and the EC50 [2] was > 35000 nM.

In the case of `Oc1c(-c2nnc(CCc3ccccc3)[nH]2)ncc2cccnc12`, the IC50 [1] is reported as 2400 nM and the EC50 [2] is reported as > 20000 nM.

With `Oc1c(-c2nnc(Cc3cccnc3)[nH]2)ncc2cccnc12` the IC50 [1] was 3500 nM and the EC50 [2] was 6400 nM.

With `Oc1c(-c2nnc(Cc3ccccc3)o2)ncc2cccnc12` the IC50 [1] was 130 nM and the EC50 [2] was 420 nM.

Work on `Oc1c(-c2noc(Cc3ccc(F)cc3)n2)ncc2cccnc12` yielded an IC50 [1] of 130 nM and an EC50 [2] of 220 nM.

`Oc1c(-c2nnc(Cc3ccccc3)[nH]2)ncc2cccnc12` was tested, and the IC50 [1] was 360 nM and the EC50 [2] was 8700 nM.

With `Oc1c(-c2nnc(Cc3ccc(F)cc3)[nH]2)ncc2cccnc12` the IC50 [1] was 130 nM and the EC50 [2] was 320 nM.

In the case of `O=C(NCc1ccc(F)cc1)c1nc(N2CCCCS2(=O)=O)c2cccnc2c1O`, the EC50 [2] is reported as 2 nM.

Work on `Oc1c(-c2noc(Cc3ccccc3)n2)ncc2cccnc12` yielded an IC50 [1] of 950 nM and an EC50 [2] of 1900 nM.

With `O=S1(=O)CCCCN1c1nc(-c2noc(Cc3ccc(F)cc3)n2)c(O)c2ncccc12` the IC50 [1] was > 100000 nM.

`Oc1c(-c2noc(-c3ccccc3)n2)ncc2cccnc12` was tested, and the IC50 [1] was > 100000 nM.

In the case of `O=C(NCc1ccc(F)cc1)c1ncc2cccnc2c1O`, the IC50 [1] is reported as 12 nM and the EC50 [2] is reported as 75 nM.

With `Oc1c(-c2nnc(Cc3ccncc3)[nH]2)ncc2cccnc12` the IC50 [1] was 4600 nM and the EC50 [2] was > 35000 nM.

In the case of `Oc1c(-c2nnc(Cc3cccc(Cl)c3)[nH]2)ncc2cccnc12`, the IC50 [1] is reported as 1030 nM and the EC50 [2] is reported as 1000 nM.

In the case of `Oc1c(-c2nnc(Cc3ccc(F)cc3)o2)ncc2cccnc12`, the IC50 [1] is reported as 42 nM and the EC50 [2] is reported as 130 nM.

`Cn1nc(-c2ncc3cccnc3c2O)nc1Cc1ccc(F)cc1` was tested, and the IC50 [1] was 7900 nM.

With `O=S1(=O)CCCCN1c1nc(-c2nnc(Cc3ccc(F)cc3)[nH]2)c(O)c2ncccc12` the IC50 [1] was 11 nM and the EC50 [2] was 240 nM.
